Measured values taken from US8673908B2, “Kynurenine production inhibitor” (Kyowa Hakko Kirin Co., Ltd., priority 2008, dated 2014).
Read-outs that look alike come from different tables or passages of the source.

Experiments:
T cells = conditions: in the presence of IDO-expressing cancer cells and dendritic cells; cited from earlier work
allogeneic pregnant mice = conditions: cited from earlier work
mouse melanoma cells = conditions: cited from earlier work
kynurenine production = conditions: competes with tryptophan; cited from earlier work
[1] = test system: kynurenine production in IFN-γ-treated KATO-III cells; experiment: Inhibitory activity on kynurenine production (Test Example 1); format: cell-based; conditions: Homo sapiens, IFN-γ treatment, culture for 96 hours, read-out: IC50 value, inhibition of kynurenine production
Method in brief: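 Read-out is absorbance at 480 nm of medium treated with trichloroacetic acid, then p-dimethylaminobenzaldehyde, to quantify kynurenine. DMSO-only wells with and without IFN-γ serve as references. Cells were KATO-III, 2,000 per well, 96 h at 37 °C/5% CO2 with compound (DMSO ≤0.1%) and IFN-γ at 31.25 ng/mL in the added suspension.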

[2] = test system: 4T1 mouse breast cancer cells; experiment: Antitumor effect in mice transplanted with 4T1 cells (Test Example 2); format: in vivo, BALB/c mice; conditions: for T/C: oral, once or twice daily
Protocol: 5-week-old BALB/c mice (male, supplied from CLEA Japan, Inc.) were purchased. After quarantine and stabilization, mice which favorably gained their weight and had no apparent abnormalities were used in the test. The test started from 6 weeks of age. The mice were housed in groups of 6 mice per plastic cage with free access to commercial solid feed and water in a breeding room in which the room temperature was 19° C. to 25° C., the humidity was 30 to 70% and the light was kept on for 12 hours a day (7:00 a.m. to 7:00 p.m.).
The abdominal hair of the BALB/c mice was shaved on the day before the test. Transplantation was performed by subcutaneous injection of a suspension containing 1×10^6 4T1 mouse breast cancer cells in 100 μL of phosphate buffered saline (PBS) from the shaved region of each mouse.
When the tumor volume reached 30 to 80 mm^3, the mice were divided into groups so that the average tumor volume of each group was equal. The test compound was suspended in 0.5% (w/v) methylcellulose 400 cP (manufactured by Wako Pure Chemical Industries, Ltd.), and the suspension was orally administered to each mouse of the corresponding group once or twice daily. The tumor volume was calculated using the formula (a×b^2)/2 (a: tumor major axis, b: tumor minor axis). The tumor volume (V) was measured twice or three times a week, and the tumor growth rate (V/V0) was calculated by division of the tumor volume (V) by the tumor volume on the day of the first administration (V0). The T/C (treatment group/control group) value was calculated by division of the V/V0 value of the test compound treatment group by the V/V0 value of the control group, based on which the antitumor effect was evaluated.
Statistical analysis was performed on the tumor volumes of the control group and the treatment group, using student's T-test. If the p value was <0.05, we considered the difference significant.

[3] = Day 4 and Day 7 after administration

Row | IC50 [1] [nM] | Compound | further results
1 | – | Cn1cc(C[C@H](N)C(=O)O)c2ccccc21 [Compound 1-MT, 1-methyltryptophan] | suppression of T cell proliferation (T cells): cancelled; MHC-restricted rejection (allogeneic pregnant mice): induces major histocompatibility complex (MHC)-restricted rejection; antitumor effect (mouse melanoma cells; immunodeficient mice): disappears; antitumor effect (mouse melanoma cells; mice bearing mouse melanoma cells): shows an antitumor effect; effect on kynurenine production (kynurenine production): inhibits kynurenine production
2 | < 1000 | CC(Oc1nc2ccccc2nc1NS(=O)(=O)c1cccc(Cl)c1Cl)c1cccnc1 (centres unmarked) [Compound 16, 2,3-dichloro-N-{3-[1-(pyridin-3-yl)ethoxy]quinoxalin-2-yl}-benzenesulfonamide] | T/C ([2]; Day 3, dose 100 mg/kg): 0.62; tumor growth inhibition (in words) ([2]; Day 3 and Day 7 after administration): significantly inhibited tumor growth; T/C ([2]; Day 7, dose 100 mg/kg): 0.58
3 | < 1000 | O=S(=O)(Nc1nc2ccccc2nc1OC(c1cccnc1)C(F)(F)F)c1cccc(Cl)c1Cl (centres unmarked) [Compound 20, 2,3-dichloro-N-{3-[2,2,2-trifluoro-1-(pyridin-3-yl)ethoxy]-quinoxalin-2-yl}benzenesulfonamide] | T/C ([2]; Day 4, dose 10 mg/kg): 0.68; tumor growth inhibition (in words) [2, 3]: significantly inhibited tumor growth; T/C ([2]; Day 7, dose 10 mg/kg): 0.69
4 | < 1000 | CCCS(=O)(=O)Nc1nc2ccccc2nc1OC(c1cccnc1)C(F)(F)F (centres unmarked) [Compound 179, N-{3-[2,2,2-trifluoro-1-(pyridin-3-yl)ethoxy]quinoxalin-2-yl}propane-1-sulfonamide] | T/C ([2]; Day 4, dose 0.1 mg/kg): 0.76; tumor growth inhibition (in words) [2, 3]: significantly inhibited tumor growth; T/C ([2]; Day 7, dose 0.1 mg/kg): 0.50
5 | < 1000 | CCCS(=O)(=O)Nc1nc2ccccc2nc1OC(C1CCN(C(=O)CC)CC1)C(F)(F)F (centres unmarked) [Compound 340, N-{3-[2,2,2-trifluoro-1-(1-propionylpiperidin-4-yl)ethoxy]-quinoxalin-2-yl}propane-1-sulfonamide] | –
6 | < 1000 | CCCS(=O)(=O)Nc1nc2ccccc2nc1OC(C1CCN(C(=O)C2CC2)CC1)C(F)(F)F (centres unmarked) [Compound 341, N-{3-[2,2,2-trifluoro-1-(1-cyclopropanecarbonylpiperidin-4-yl)ethoxy]quinoxalin-2-yl}propane-1-sulfonamide] | –
7 | < 1000 | CCCS(=O)(=O)Nc1nc2ccccc2nc1O[C@H](c1cnc(C)s1)C(F)(F)F [Compound 342, (S)—N-{3-[2,2,2-trifluoro-1-(2-methylthiazol-5-yl)ethoxy]-quinoxalin-2-yl}propane-1-sulfonamide] | –
8 | 1000 to 10000 | CCCS(=O)(=O)Nc1nc2ccccc2nc1O[C@@H](c1cnc(C)s1)C(F)(F)F [Compound 343, (R)—N-{3-[2,2,2-trifluoro-1-(2-methylthiazol-5-yl)ethoxy]-quinoxalin-2-yl}propane-1-sulfonamide] | –
9 | < 1000 | CCCS(=O)(=O)Nc1nc2ccccc2nc1OC(c1csc(C)n1)C(F)(F)F (centres unmarked) [Compound 344, N-{3-[2,2,2-trifluoro-1-(2-methylthiazol-4-yl)ethoxy]-quinoxalin-2-yl}propane-1-sulfonamide] | –
10 | 1000 to 10000 | CCCS(=O)(=O)Nc1nc2ccccc2nc1OCc1cnc(C)s1 [Compound 345, N-{3-[(2-methylthiazol-5-yl)methoxy]quinoxalin-2-yl}-propane-1-sulfonamide] | –
11 | 1000 to 10000 | CCCS(=O)(=O)Nc1nc2ccccc2nc1O[C@@H](C1CCOCC1)C(F)(F)F [Compound 346, (S)—N-{3-[2,2,2-trifluoro-1-(tetrahydro-2H-pyran-4-yl)-ethoxy]quinoxalin-2-yl}propane-1-sulfonamide] | –
12 | < 1000 | CCCS(=O)(=O)Nc1nc2ccccc2nc1O[C@H](C1CCOCC1)C(F)(F)F [Compound 347, (R)—N-{3-[2,2,2-trifluoro-1-(tetrahydro-2H-pyran-4-yl)-ethoxy]quinoxalin-2-yl}propane-1-sulfonamide] | –
13 | < 1000 | CCCS(=O)(=O)Nc1nc2ccccc2nc1O[C@H](c1ccc(Cl)nc1)C(F)(F)F [Compound 348, (R)—N-{3-[2,2,2-trifluoro-1-(6-chloropyridin-3-yl)ethoxy]-quinoxalin-2-yl}propane-1-sulfonamide] | –
14 | < 1000 | CCCS(=O)(=O)Nc1nc2ccccc2nc1O[C@H](c1cccc(C#N)c1)C(F)(F)F [Compound 349, (R)—N-{3-[2,2,2-trifluoro-1-(3-cyanophenyl)ethoxy]-quinoxalin-2-yl}propane-1-sulfonamide] | –
15 | < 1000 | CCCS(=O)(=O)Nc1nc2ccccc2nc1OC(C(F)(F)F)C1(F)CCOCC1 (centres unmarked) [Compound 350, N-{3-[2,2,2-trifluoro-1-(4-fluorotetrahydro-2H-pyran-4-yl)-ethoxy]quinoxalin-2-yl}propane-1-sulfonamide] | –
16 | < 1000 | CCCS(=O)(=O)Nc1nc2ccccc2nc1OC(C(F)(F)F)C1(C#N)CCOCC1 (centres unmarked) [Compound 351, N-{3-[2,2,2-trifluoro-1-(4-cyanotetrahydro-2H-pyran-4-yl)-ethoxy]quinoxalin-2-yl}propane-1-sulfonamide] | –
17 | 1000 to 10000 | CCCS(=O)(=O)Nc1nc2ccccc2nc1OC(C(F)(F)F)C1(O)CCOCC1 (centres unmarked) [Compound 352, N-{3-[2,2,2-trifluoro-1-(4-hydroxytetrahydro-2H-pyran-4-yl)ethoxy]quinoxalin-2-yl}propane-1-sulfonamide] | –
18 | < 1000 | CCCS(=O)(=O)Nc1nc2ccccc2nc1OC(C(F)(F)F)C1(OC)CCOCC1 (centres unmarked) [Compound 353, N-{3-[2,2,2-trifluoro-1-(4-methoxytetrahydro-2H-pyran-4-yl)ethoxy]quinoxalin-2-yl}propane-1-sulfonamide] | –
19 | < 1000 | CCCS(=O)(=O)Nc1nc2ccccc2nc1OC(C(F)(F)F)C1(F)CCN(C(C)=O)CC1 (centres unmarked) [Compound 354, N-{3-[2,2,2-trifluoro-1-(1-acetyl-4-fluoropiperidin-4-yl)-ethoxy]quinoxalin-2-yl}propane-1-sulfonamide] | –
20 | < 1000 | CCCS(=O)(=O)Nc1nc2ccccc2nc1OC(C(F)(F)F)C1(F)CCN(S(C)(=O)=O)CC1 (centres unmarked) [Compound 355, N-{3-[2,2,2-trifluoro-1-(4-fluoro-1-methanesulfonylpiperidin-4-yl)ethoxy]quinoxalin-2-yl}propane-1-sulfonamide] | –
21 | < 1000 | CCCS(=O)(=O)Nc1nc2ccccc2nc1OC(C(F)(F)F)C1(C)CCN(C(C)=O)CC1 (centres unmarked) [Compound 356, N-{3-[2,2,2-trifluoro-1-(1-acetyl-4-methylpiperidin-4-yl)-ethoxy]quinoxalin-2-yl}propane-1-sulfonamide] | –
22 | < 1000 | CCCS(=O)(=O)Nc1nc2ccccc2nc1OC(C(F)(F)F)C1(C)CCN(S(C)(=O)=O)CC1 (centres unmarked) [Compound 357, N-{3-[2,2,2-trifluoro-1-(1-methanesulfonyl-4-methylpiperidin-4-yl)ethoxy]quinoxalin-2-yl}propane-1-sulfonamide] | –
23 | 1000 to 10000 | CCCS(=O)(=O)Nc1cc2ccccc2nc1OC(c1cccnc1)C(F)(F)F (centres unmarked) [Compound 358, N-{2-[2,2,2-trifluoro-1-(pyridin-3-yl)ethoxy]quinolin-3-yl}propane-1-sulfonamide] | –
24 | 1000 to 10000 | O=S(=O)(Nc1cc2ccccc2nc1OC(c1cccnc1)C(F)(F)F)c1ccccc1Cl (centres unmarked) [Compound 360, 2-chloro-N-{2-[2,2,2-trifluoro-1-(pyridin-3-yl)ethoxy]-quinolin-3-yl}benzenesulfonamide] | –
25 | 1000 to 10000 | O=S(=O)(Nc1nc2ccncc2nc1OC(c1cccnc1)C(F)(F)F)c1ccccc1Cl (centres unmarked) [Compound 362, 2-chloro-N-{2-[2,2,2-trifluoro-1-(pyridin-3-yl)ethoxy]-pyrido[3,4-b]pyrazin-2-yl}benzenesulfonamide] | –
